Assay results: US6906006B1, “N-arly-substituted nitrogen-containing heterocycles, processes and novel intermediates for their preparation, and their use as herbicides and plant growth regulators” (Bayer Aktiengesellschaft, priority 1988, dated 2005)

Key:
[1] = tested on: test plants; assay: Post-emergence test (Use Example B, formula (I) compounds); format: in vivo; settings: sprayed in 2,000 l of water/ha, damage rated after three weeks, comparison substance 1-(2-chloro-4-trifluoromethylphenyl)-5-methyl-4-nitropyrazole
Method: • Solvents 5 parts by weight of acetone • Emulsifier: 1 part by weight of alkylaryl polyglycol ether
(§1) To produce a suitable preparation of active compound, 1 part by weight of active compound is mixed with the stated amount of solvent, the stated amount of emulsifier is added and the concentrate is diluted with water to the desired concentration.
Test plants which have a height of 5-15 cm are sprayed with the preparation of the active compound in such a way as to apply the particular amounts of active compound desired per unit area. The concentration of the spray liquor is so chosen that the particular amounts of active compound desired are applied in 2,000 l of water/ha. After three weeks, the degree of damage to the plants is rated in % damage in comparison to the development of the untreated control. The figures denote: • 0%=no action (like untreated control) • 100%=total destruction

[2] = tested on: test plants; assay: Pre-emergence test (Use Example A, formula (I) compounds); format: in vivo; settings: damage rated after three weeks, comparison substance 1-(2-chloro-4-trifluoromethylphenyl)-5-methyl-4-nitropyrazole
Method: • Solvent: 5 parts by weight of acetone • Emulsifier: 1 part by weight of alkylaryl polyglycol ether
as §1
Seeds of the test plants are sown in normal soil and, after 24 hours, watered with the preparation of active compound. It is expedient to keep constant the amount of water per unit area. The concentration of the active compound in the preparation is of no importance, only the amount of active compound applied per unit area being decisive. After three weeks, the degree of damage to the plants is rated in % damage in comparison to the development of the untreated control. The figures denote: • 0%=no action (like untreated control) • 100% total destruction

SMILES	effectiveness and crop plant selectivity compared with the prior art [1]	effectiveness and crop plant selectivity compared with the prior art [2]
Cc1c2c(nn1-c1cc(SC(C)C)c(C#N)cc1F)CCCC2 [Example 9, 4-(5-methyl-3,4-tetramethylene-1-pyrazolyl)-5-fluoro-2-isopropylthiobenzonitrile]	clearly superior effectiveness as well as crop plant selectivity	
CCOCCOc1cc(-n2nc3c(c2C)CCCC3)c(F)cc1C#N [Example 10]	clearly superior effectiveness as well as crop plant selectivity	clearly superior to the prior art
